Experimental data: patent US9247759B2, “Identification of human T2R receptors that respond to bitter compounds that elicit the bitter taste in compositions, and the use thereof in assays to identify compounds that inhibit (block) bitter taste in compositions and use thereof” (SENOMYX, INC., priority 2007, dated 2016)
Where two headings read alike, the source gives them in different places.

Legend:
[1] = molecular target: hT2R8 (Homo sapiens (Human), UniProt Q9NYW2); assay: hT2R8 antagonist high-throughput FLIPR assay, stable cell line with G16g44, agonist andrographolide; type: cell-based
hT2R8, sequence (Q9NYW2 whole entry): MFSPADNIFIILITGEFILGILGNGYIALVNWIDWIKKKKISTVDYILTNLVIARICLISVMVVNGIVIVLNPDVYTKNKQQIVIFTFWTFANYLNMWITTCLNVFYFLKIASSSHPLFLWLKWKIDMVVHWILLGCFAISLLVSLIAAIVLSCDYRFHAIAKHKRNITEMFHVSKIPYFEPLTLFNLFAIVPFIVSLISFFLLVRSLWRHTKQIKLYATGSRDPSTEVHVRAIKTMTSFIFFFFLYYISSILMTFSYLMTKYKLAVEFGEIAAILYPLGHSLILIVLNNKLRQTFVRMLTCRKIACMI
Outline: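 HEK293 cells stably co-expressing hT2R8 and chimeric G16g44, read on FLIPR. Test compounds added together with andrographolide (200 μM), which drives the receptor to 70–80% of maximal activity; antagonism seen as reduced agonist response.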

[2] = molecular target: hT2R10 (Homo sapiens (Human), UniProt Q9NYW0); assay: hT2R panel inhibition, transient HEK293 G16g44, agonist Strychnine 50 μM; type: cell-based; settings: HEK293, read-out: screening result against bitter receptor 10, compound at 25 μM; receptor activated to EC80 with the corresponding agonist
hT2R10, sequence (Q9NYW0 whole entry): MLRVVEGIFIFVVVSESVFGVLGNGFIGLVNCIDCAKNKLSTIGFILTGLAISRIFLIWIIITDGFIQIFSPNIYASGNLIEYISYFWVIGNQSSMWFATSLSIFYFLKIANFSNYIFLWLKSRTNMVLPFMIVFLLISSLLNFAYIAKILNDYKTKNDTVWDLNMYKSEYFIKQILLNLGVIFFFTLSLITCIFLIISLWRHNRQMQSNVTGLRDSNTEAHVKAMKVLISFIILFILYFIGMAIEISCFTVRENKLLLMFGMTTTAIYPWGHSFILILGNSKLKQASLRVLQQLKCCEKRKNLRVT

[3] = molecular target: hT2R3 (Homo sapiens (Human), UniProt Q9NYW6); assay: hT2R panel inhibition, transient HEK293 G16g44, agonist Chloroquine pH6.5 50 μM; type: cell-based; settings: HEK293, compound at 25 μM; receptor activated to EC80 with the corresponding agonist; read-out: screening result against bitter receptor 3
hT2R3, sequence (Q9NYW6 whole entry): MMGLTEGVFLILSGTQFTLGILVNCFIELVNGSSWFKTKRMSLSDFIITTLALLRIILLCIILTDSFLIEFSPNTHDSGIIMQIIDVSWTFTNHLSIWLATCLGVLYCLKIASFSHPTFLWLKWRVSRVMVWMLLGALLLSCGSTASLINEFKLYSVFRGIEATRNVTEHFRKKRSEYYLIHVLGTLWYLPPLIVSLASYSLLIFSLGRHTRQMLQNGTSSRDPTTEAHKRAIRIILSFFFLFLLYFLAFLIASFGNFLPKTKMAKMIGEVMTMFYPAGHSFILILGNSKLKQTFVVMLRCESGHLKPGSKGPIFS
Outline: (§1)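 Each of 22 human bitter receptors was expressed individually by transient transfection in cells stably carrying the promiscuous G protein. Agonists were applied at EC80, and inhibition was scored as the drop in receptor activity with the test compound present.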

[4] = molecular target: T1, hT2R14 (Homo sapiens (Human), UniProt Q9NYV8); assay: hT2R panel inhibition, transient HEK293 G16g44, agonist Aristolochic Acid 2 μM; type: cell-based; settings: HEK293, compound at 25 μM; receptor activated to EC80 with the corresponding agonist; read-out: screening result against bitter receptor 14
T1 sequence (Q9NYV8 whole entry): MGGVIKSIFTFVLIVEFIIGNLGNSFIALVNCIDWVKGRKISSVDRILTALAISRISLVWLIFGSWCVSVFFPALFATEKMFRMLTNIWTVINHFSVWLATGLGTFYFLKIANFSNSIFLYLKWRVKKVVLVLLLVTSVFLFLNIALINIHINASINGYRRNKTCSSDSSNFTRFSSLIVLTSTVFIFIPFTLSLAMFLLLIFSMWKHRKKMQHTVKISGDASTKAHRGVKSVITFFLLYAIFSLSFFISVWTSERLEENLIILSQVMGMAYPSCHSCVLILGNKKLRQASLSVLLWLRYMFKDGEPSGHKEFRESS
Outline: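 Each hT2R was transiently transfected into HEK293 cells stably expressing G16g44 and assayed functionally for inhibition of agonist response. Agonists were applied at EC80: andrographolide at 0.5 mM for hT2R8 and aristolochic acid at 2 μM for hT2R14.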

[5] = molecular target: hT2R9 (Homo sapiens (Human), UniProt Q9NYW1); assay: hT2R panel inhibition, transient HEK293 G16g44, agonist Ofloxacin 1 mM; type: cell-based; settings: HEK293, compound at 25 μM; receptor activated to EC80 with the corresponding agonist; read-out: screening result against bitter receptor 9
hT2R9, sequence (Q9NYW1 whole entry): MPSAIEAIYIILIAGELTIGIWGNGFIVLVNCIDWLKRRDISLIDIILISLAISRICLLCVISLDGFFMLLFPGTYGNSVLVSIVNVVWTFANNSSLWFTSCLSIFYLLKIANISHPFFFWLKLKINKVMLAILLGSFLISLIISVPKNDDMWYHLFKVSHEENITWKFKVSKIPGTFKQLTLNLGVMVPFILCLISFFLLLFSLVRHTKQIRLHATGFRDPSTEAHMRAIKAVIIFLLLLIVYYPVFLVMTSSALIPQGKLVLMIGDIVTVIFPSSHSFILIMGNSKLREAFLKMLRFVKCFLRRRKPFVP
Outline: as §1

[6] = molecular target: hT2R16 (Homo sapiens (Human), UniProt Q9NYV7); assay: hT2R panel inhibition, transient HEK293 G16g44, agonist Salicin 1 mM; type: cell-based; settings: HEK293, compound at 25 μM; receptor activated to EC80 with the corresponding agonist; read-out: screening result against bitter receptor 16
hT2R16, sequence (Q9NYV7 whole entry): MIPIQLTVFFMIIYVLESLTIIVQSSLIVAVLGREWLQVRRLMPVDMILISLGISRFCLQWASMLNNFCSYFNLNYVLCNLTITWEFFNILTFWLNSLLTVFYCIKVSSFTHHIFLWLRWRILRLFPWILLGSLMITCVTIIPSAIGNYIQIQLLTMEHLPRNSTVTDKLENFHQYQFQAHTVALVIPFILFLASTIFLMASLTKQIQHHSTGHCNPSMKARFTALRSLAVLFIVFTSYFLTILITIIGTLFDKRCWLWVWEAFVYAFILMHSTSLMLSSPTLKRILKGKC
Outline: as §1

[7] = molecular target: hT2R4 (Homo sapiens (Human), UniProt Q9NYW5); assay: hT2R panel inhibition, transient HEK293 G16g44, agonist Chloroquine pH6.5 5 mM; type: cell-based; settings: HEK293, compound at 25 μM; receptor activated to EC80 with the corresponding agonist; class symbols; read-out: screening result against bitter receptor 4
hT2R4, sequence (Q9NYW5 whole entry): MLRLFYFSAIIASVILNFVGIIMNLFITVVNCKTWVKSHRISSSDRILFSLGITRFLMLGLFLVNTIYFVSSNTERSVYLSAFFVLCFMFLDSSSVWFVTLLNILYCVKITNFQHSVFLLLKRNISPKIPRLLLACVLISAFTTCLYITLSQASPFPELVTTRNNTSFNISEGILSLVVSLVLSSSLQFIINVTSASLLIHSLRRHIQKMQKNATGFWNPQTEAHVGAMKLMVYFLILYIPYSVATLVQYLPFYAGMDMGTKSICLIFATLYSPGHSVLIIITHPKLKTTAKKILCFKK
Outline: as §1

[8] = system: hT2R65; assay: hT2R panel inhibition, transient HEK293 G16g44, agonist Oleuropein 1 mM; type: cell-based, human; settings: compound at 25 μM; receptor activated to EC80 with the corresponding agonist
Outline: as §1

[9] = molecular target: hT2R71 (Homo sapiens (Human), UniProt P59536); assay: hT2R panel inhibition, transient HEK293 G16g44, agonist Picric Acid 10 μM; type: cell-based; settings: HEK293, compound at 25 μM; receptor activated to EC80 with the corresponding agonist; read-out: screening result against bitter receptor 71
hT2R71, sequence (P59536 whole entry): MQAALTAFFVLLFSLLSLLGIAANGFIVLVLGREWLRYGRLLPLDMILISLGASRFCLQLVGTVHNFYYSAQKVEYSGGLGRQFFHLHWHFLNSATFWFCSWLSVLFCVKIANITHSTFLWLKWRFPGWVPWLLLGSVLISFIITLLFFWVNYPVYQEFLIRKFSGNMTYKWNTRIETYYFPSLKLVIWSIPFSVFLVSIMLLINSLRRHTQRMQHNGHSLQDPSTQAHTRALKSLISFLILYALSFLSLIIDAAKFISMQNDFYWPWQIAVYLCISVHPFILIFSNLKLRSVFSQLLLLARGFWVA
Outline: as §1

[10] = system: hT2R67; assay: hT2R panel inhibition, transient HEK293 G16g44, agonist Andrographolide 5 μM; type: cell-based, human; settings: compound at 25 μM; receptor activated to EC80 with the corresponding agonist
Outline: as §1

[11] = molecular target: hT2R5 (Homo sapiens (Human), UniProt Q9NYW4); assay: hT2R panel inhibition, transient HEK293 G16g44, agonist Picoline 10 mM; type: cell-based; settings: HEK293, compound at 25 μM; receptor activated to EC80 with the corresponding agonist; read-out: screening result against bitter receptor 5
hT2R5, sequence (Q9NYW4 whole entry): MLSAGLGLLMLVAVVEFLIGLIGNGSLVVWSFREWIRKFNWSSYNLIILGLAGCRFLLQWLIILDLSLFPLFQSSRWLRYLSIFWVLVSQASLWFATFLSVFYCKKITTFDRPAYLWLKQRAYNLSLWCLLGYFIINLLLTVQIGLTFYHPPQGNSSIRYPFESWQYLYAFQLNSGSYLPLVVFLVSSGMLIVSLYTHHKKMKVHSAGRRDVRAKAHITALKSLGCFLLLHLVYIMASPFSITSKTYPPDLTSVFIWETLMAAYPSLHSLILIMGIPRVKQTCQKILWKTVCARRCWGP
Outline: as §1

[12] = molecular target: hT2R61 (Homo sapiens (Human), UniProt P59537); assay: hT2R panel inhibition, transient HEK293 G16g44, agonist Aristolochic Acid 25 nM; type: cell-based; settings: HEK293, compound at 25 μM; receptor activated to EC80 with the corresponding agonist; read-out: screening result against bitter receptor 61
hT2R61, sequence (P59537 whole entry): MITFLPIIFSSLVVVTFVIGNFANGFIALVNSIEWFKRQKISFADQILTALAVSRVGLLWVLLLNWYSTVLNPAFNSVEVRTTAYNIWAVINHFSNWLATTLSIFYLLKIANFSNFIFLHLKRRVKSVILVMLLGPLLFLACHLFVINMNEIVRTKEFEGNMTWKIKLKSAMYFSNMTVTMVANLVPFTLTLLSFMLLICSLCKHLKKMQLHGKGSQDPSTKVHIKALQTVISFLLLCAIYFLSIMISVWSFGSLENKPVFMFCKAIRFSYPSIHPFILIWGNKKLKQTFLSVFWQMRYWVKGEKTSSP
Outline: as §1

[13] = molecular target: hT2R13 (Homo sapiens (Human), UniProt Q9NYV9); assay: hT2R panel inhibition, transient HEK293 G16g44, agonist Oxyphenonium 1 mM; type: cell-based; settings: HEK293, compound at 25 μM; receptor activated to EC80 with the corresponding agonist; read-out: screening result against bitter receptor 13
hT2R13, sequence (Q9NYV9 whole entry): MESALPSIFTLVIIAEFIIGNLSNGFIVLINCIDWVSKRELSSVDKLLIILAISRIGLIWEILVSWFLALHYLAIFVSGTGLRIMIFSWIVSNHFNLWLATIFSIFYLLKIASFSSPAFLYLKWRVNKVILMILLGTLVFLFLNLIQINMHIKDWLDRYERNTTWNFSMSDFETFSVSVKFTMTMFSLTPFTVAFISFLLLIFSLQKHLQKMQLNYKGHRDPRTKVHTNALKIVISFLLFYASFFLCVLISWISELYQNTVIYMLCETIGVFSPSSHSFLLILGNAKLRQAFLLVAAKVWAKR
Outline: as §1

[14] = molecular target: hT2R7 (Homo sapiens (Human), UniProt Q9NYW3); assay: hT2R panel inhibition, transient HEK293 G16g44, agonist Chloroquine pH6.5 10 mM; type: cell-based; settings: HEK293, compound at 25 μM; receptor activated to EC80 with the corresponding agonist; read-out: screening result against bitter receptor 7
hT2R7, sequence (Q9NYW3 whole entry): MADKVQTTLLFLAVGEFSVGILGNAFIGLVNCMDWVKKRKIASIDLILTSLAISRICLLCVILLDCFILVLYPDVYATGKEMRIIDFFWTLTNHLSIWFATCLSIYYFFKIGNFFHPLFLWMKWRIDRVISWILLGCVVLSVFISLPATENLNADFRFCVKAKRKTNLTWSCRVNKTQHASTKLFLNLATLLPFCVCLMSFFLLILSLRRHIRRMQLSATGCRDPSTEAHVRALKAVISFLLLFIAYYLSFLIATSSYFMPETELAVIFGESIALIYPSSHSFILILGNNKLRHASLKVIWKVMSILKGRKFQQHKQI
Outline: as §1

[15] = molecular target: hT2R51 (Homo sapiens (Human), UniProt P59533); assay: hT2R panel inhibition, transient HEK293 G16g44, agonist Prop 2.5 μM; type: cell-based; settings: HEK293, compound at 25 μM; receptor activated to EC80 with the corresponding agonist; read-out: screening result against bitter receptor 51
hT2R51, sequence (P59533 whole entry): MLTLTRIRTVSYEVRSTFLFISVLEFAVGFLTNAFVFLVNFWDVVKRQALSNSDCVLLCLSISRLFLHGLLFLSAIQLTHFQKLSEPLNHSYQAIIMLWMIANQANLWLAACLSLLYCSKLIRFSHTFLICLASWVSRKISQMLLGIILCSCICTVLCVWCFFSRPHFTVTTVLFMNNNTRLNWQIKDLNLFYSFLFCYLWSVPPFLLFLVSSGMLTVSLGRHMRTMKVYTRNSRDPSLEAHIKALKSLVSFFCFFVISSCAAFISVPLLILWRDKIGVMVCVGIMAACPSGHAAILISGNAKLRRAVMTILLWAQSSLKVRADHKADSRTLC
Outline: as §1

[16] = molecular target: T1, hT2R14; assay: hT2R14 antagonist high-throughput FLIPR assay, stable cell line with G16g44, agonist aristolochic acid; type: cell-based; settings: read-out: IC50 on hT2R14 bitter receptor
Outline: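 HEK293 cells stably expressing hT2R14 with chimeric G16g44 were stimulated with aristolochic acid (3 μM), giving 70-80% of maximal receptor activity. Test compounds were added together with the agonist, and antagonism was read as fluorescent calcium signal on FLIPR.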

[17] = molecular target: hT2R64 (Homo sapiens (Human), UniProt P59538); assay: hT2R panel inhibition, transient HEK293 G16g44, agonist Aristolochic Acid 1 μM; type: cell-based; settings: HEK293, compound at 25 μM; receptor activated to EC80 with the corresponding agonist; read-out: screening result against bitter receptor 64
hT2R64, sequence (P59538 whole entry): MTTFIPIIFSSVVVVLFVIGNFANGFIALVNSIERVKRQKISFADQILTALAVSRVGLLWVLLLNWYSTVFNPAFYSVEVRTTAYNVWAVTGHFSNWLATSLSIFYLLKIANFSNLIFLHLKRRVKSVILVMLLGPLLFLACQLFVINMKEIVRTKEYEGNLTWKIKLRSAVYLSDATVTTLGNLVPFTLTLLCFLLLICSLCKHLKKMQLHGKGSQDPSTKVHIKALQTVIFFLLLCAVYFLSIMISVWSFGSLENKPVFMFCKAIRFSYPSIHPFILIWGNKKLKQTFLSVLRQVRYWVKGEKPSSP
Outline: as §1

[18] = molecular target: hT2R75 (Homo sapiens (Human), UniProt P59540); assay: hT2R panel inhibition, transient HEK293 G16g44, agonist Strychnine 1 μM; type: cell-based; settings: HEK293, read-out: screening result against bitter receptor 75, compound at 25 μM; receptor activated to EC80 with the corresponding agonist
hT2R75, sequence (P59540 whole entry): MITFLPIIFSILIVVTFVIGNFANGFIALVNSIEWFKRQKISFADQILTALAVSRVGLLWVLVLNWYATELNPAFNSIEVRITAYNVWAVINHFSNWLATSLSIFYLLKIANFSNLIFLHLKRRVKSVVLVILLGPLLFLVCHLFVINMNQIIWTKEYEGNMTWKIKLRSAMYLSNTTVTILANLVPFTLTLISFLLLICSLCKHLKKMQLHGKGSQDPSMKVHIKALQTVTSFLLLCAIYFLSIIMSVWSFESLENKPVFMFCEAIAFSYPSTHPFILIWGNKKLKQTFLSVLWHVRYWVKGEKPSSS

[19] = system: hT2R55; assay: hT2R panel inhibition, transient HEK293 G16g44, agonist Cinchonine 150 μM; type: cell-based, human; settings: compound at 25 μM; receptor activated to EC80 with the corresponding agonist
Outline: as §1

[20] = read-out: IC50 on hT2R8 bitter receptor
[21] = table after Example 10-97, read-out: hT2R8 IC50

Compound	melting point [°C]	IC50 [1, 20] [nM]	other results
Cc1noc(C)c1Cn1cc(NC(=O)Cc2ccccc2)cn1 [Example 4-6, N-(1-((3,5-dimethylisoxazol-4-yl)methyl)-1H-pyrazol-4-yl)-2-phenylacetamide]	106 to 108	530	
COc1cccc(CN2C(=O)N(c3cnn(Cc4c(C)noc4C)c3)C(=O)C2(C)C)c1 [Example 12-32, 3-(1-((3,5-dimethylisoxazol-4-yl)methyl)-1H-pyrazol-4-yl)-1-(3-methoxybenzyl)-5,5-dimethylimidazolidine-2,4-dione]	107 to 108	80	
Cc1noc(C)c1Cn1cc(N2C(=O)c3ccccc3C2=O)cn1 [Example 9-1, 2-(1-((3,5-dimethylisoxazol-4-yl)methyl)-1H-pyrazol-4-yl)isoindoline-1,3-dione]	170 to 171	180	
COc1ccccc1CCN1CC(=O)N(c2cnn(Cc3c(C)noc3C)c2)C1=O [Example 10-76, 3-(1-((3,5-dimethylisoxazol-4-yl)methyl)-1H-pyrazol-4-yl)-1-(2-methoxyphenethyl)imidazolidine-2,4-dione]	97 to 98	140	IC50 [1, 21]: 97 nM
COc1cc(CC(=O)Nc2cnn(Cc3c(C)noc3C)c2)cc(OC)c1O [Example 4-4, N-(1-((3,5-dimethylisoxazol-4-yl)methyl)-1H-pyrazol-4-yl)-2-(4-hydroxy-3,5-dimethoxyphenyl)acetamide]	187 to 188	460	
Cc1noc(C)c1Cn1cc(-n2c(=O)n(C)n(Cc3ccccc3)c2=O)cn1 [Example 10-65, 1-Benzyl-4-(1-((3,5-dimethylisoxazol-4-yl)methyl)-1H-pyrazol-4-yl)-2-methyl-1,2,4-triazolidine-3,5-dione]	124 to 126	20	IC50 [1, 21]: 19 nM
Cc1noc(C)c1Cn1cc(NC(=O)c2ccccn2)cn1 [Example 4-1, N-(1-((3,5-dimethylisoxazol-4-yl)methyl)-1H-pyrazol-4-yl)picolinamide]	135 to 137	570	
COc1cccc(C(=O)Nc2cnn(Cc3c(C)noc3C)c2)c1 [Example 4-7, N-(1-((3,5-dimethylisoxazol-4-yl)methyl)-1H-pyrazol-4-yl)-3-methoxybenzamide]	127 to 129	390	
COc1ccc(CN(CC2CCCCC2)S(=O)(=O)c2ccc(C(=O)O)cc2)cc1 [Example 5-23, 4-(N-(cyclohexylmethyl)-N-(4-methoxybenzyl)sulfamoyl)-benzoic acid]			inhibition at 25 µM [2]: > 80%; inhibition at 25 µM [3]: 60 to 80%; inhibition at 25 µM [4]: > 80%; inhibition at 25 µM [5]: 40 to 60%; inhibition at 25 µM [6]: 60 to 80%; inhibition at 25 µM [7]: 40 to 60%; screening result against bitter receptor 65 [8]: ++++ (80% or greater inhibition = ++++); inhibition at 25 µM [9]: > 80%; screening result against bitter receptor 67 [10]: ++ (40% to 60% inhibition = ++); inhibition at 25 µM [11]: 40 to 60%; inhibition at 25 µM [12]: > 80%; inhibition at 25 µM [13]: 20 to 40%; inhibition at 25 µM [14]: 40 to 60%; inhibition at 25 µM [15]: 40 to 60%; IC50 [16]: 3.47 µM; inhibition at 25 µM [17]: 60 to 80%; inhibition at 25 µM [18]: 40 to 60%; screening result against bitter receptor 55 [19]: ++++ (80% or greater inhibition = ++++)
Cc1noc(C)c1Cn1cc(NC(=O)C(C)c2ccccc2)cn1 (stereo not shown) [Example 4-5, N-(1-((3,5-dimethylisoxazol-4-yl)methyl)-1H-pyrazol-4-yl)-2-phenylpropanamide]	129 to 130	320	
Cc1noc(C)c1Cn1cc(NC(=O)C23CC4CC(CC(C4)C2)C3)cn1 [Example 4-16, N-(1-((3,5-dimethylisoxazol-4-yl)methyl)-1H-pyrazol-4-yl) adamantane]	167 to 169	880	
Cc1noc(C)c1Cn1cc(N2C(=O)NC(Cc3ccccc3)C2=O)cn1 (stereo not shown) [Example 10-2, 5-benzyl-3-(1-((3,5-dimethylisoxazol-4-yl)methyl)-1H-pyrazol-4-yl)imidazolidine-2,4-dione]	169 to 171	180	
Cc1noc(C)c1Cn1cc(N2C(=O)CN(CCc3cccc(F)c3)C2=O)cn1 [Example 10-77, 3-(1-((3,5-dimethylisoxazol-4-yl)methyl)-1H-pyrazol-4-yl)-1-(3-fluorophenethyl)imidazolidine-2,4-dione]	110 to 111	60	IC50 [1, 21]: 64 nM
Cc1noc(C)c1Cn1cc(NC(=O)[C@@H](C)c2ccccc2)cn1 [Example 4-3, (S)—N-(1-((3,5-dimethylisoxazol-4-yl)methyl)-1H-pyrazol-4-yl)-2-phenylpropanamide]	108 to 110	410	
Cc1noc(C)c1Cn1cc(N2C(=O)CN(CCc3ccccc3)C2=O)cn1 [Example 10-78, 3-(1-((3,5-dimethylisoxazol-4-yl)methyl)-1H-pyrazol-4-yl)-1-phenethylimidazolidine-2,4-dione]	95 to 96	140	IC50 [1, 21]: 139 nM
Cc1noc(C)c1Cn1cc(N2C(=O)CN(CCOc3ccccc3)C2=O)cn1 [Example 10-5, 3-(1-((3,5-dimethylisoxazol-4-yl)methyl)-1H-pyrazol-4-yl)-1-(2-phenoxyethyl)imidazolidine-2,4-dione]	117 to 118	60	IC50 [1, 21]: 63 nM
Cc1noc(C)c1Cn1cc(NC(=O)c2scc(S(C)(=O)=O)c2Cl)cn1 [Example 4-2, 3-chloro-N-(1-((3,5-dimethylisoxazol-4-yl)methyl)-1H-pyrazol-4-yl)-4-(methylsulfonyl)thiophene-2-carboxamide]	202 to 204	2090	
